Measured values published in paper PMC5218480 (PLoS ONE, 2017).

System: MV-4-11 cells
Experiment: Gene expression microarray analysis (Affymetrix PrimeView) and GSEA
Format: cell-based, human
Parameters: RFU PODN (11730768_x_at) / Fold change /veh PODN (11730768_x_at) / RFU LINC00158 (11744669_a_at) / Fold change /veh LINC00158 (11744669_a_at) / RFU DUSP10 (11751237_a_at) / Fold change /veh DUSP10 (11751237_a_at) / RFU ID3 (11757404_x_at) / Fold change /veh ID3 (11757404_x_at) / RFU PLEKHG5 (11737974_s_at) / Fold change /veh PLEKHG5 (11737974_s_at) / RFU LRRC4B (11730491_at) / Fold change /veh LRRC4B (11730491_at) / RFU GIMAP4 (11747438_a_at) / Fold change /veh GIMAP4 (11747438_a_at) / RFU KRT8 (11758183_x_at) / Fold change /veh KRT8 (11758183_x_at) / RFU CNN1 (11734310_a_at) / Fold change /veh CNN1 (11734310_a_at) / RFU VPS37D (11726825_at) / Fold change /veh VPS37D (11726825_at) / RFU C10orf10 (11716522_x_at) / Fold change /veh C10orf10 (11716522_x_at) / RFU KIR2DL2 /// KIR2DL4 /// KIR2DL5A /// KIR2DL5B /// KIR2DS1 /// KIR2DS2 /// KIR2DS3 /// KIR2DS4 /// KIR3DL3 /// KIR3DL3 /// KIR3DS1 (11738374_at) / Fold change /veh KIR2DL2 /// KIR2DL4 /// KIR2DL5A /// KIR2DL5B /// KIR2DS1 /// KIR2DS2 /// KIR2DS3 /// KIR2DS4 /// KIR3DL3 /// KIR3DL3 /// KIR3DS1 (11738374_at) / RFU C1QL1 (11718748_at) / Fold change /veh C1QL1 (11718748_at) / RFU TMPRSS4 (11747572_a_at) / Fold change /veh TMPRSS4 (11747572_a_at) / RFU HAMP (11756126_x_at) / Fold change /veh HAMP (11756126_x_at) / RFU RNFT2 (11725882_a_at) / Fold change /veh RNFT2 (11725882_a_at) / RFU NR4A2 (11747474_a_at) / Fold change /veh NR4A2 (11747474_a_at) / RFU ABCC12 (11746883_a_at) / Fold change /veh ABCC12 (11746883_a_at) / RFU TMEM136 (11760407_x_at) / Fold change /veh TMEM136 (11760407_x_at) / RFU CLDN22 /// WWC2 (11732394_at) / Fold change /veh CLDN22 /// WWC2 (11732394_at) / RFU HLA-DPB1 (11760878_x_at) / Fold change /veh HLA-DPB1 (11760878_x_at) / RFU SPINT1 (11716480_a_at) / Fold change /veh SPINT1 (11716480_a_at) / RFU GAP43 (11754022_s_at) / Fold change /veh GAP43 (11754022_s_at) / RFU A4GNT (11735810_at) / Fold change /veh A4GNT (11735810_at) / RFU PRB3 (11715151_x_at) / Fold change /veh PRB3 (11715151_x_at) / RFU TUBB4B (11761932_at) / Fold change /veh TUBB4B (11761932_at) / RFU CAPN14 (11732068_a_at) / Fold change /veh CAPN14 (11732068_a_at) / RFU TMCC2 (11721928_a_at) / Fold change /veh TMCC2 (11721928_a_at) / RFU IRGQ (11745062_a_at) / Fold change /veh IRGQ (11745062_a_at) / RFU FAM174B (11720279_a_at) / Fold change /veh FAM174B (11720279_a_at) / RFU TMPRSS4 (11748680_a_at) / Fold change /veh TMPRSS4 (11748680_a_at) / RFU FAM212B (11763350_a_at) / Fold change /veh FAM212B (11763350_a_at) / RFU PLEKHG5 (11743358_a_at) / Fold change /veh PLEKHG5 (11743358_a_at) / RFU ZSCAN30 (11745921_a_at) / Fold change /veh ZSCAN30 (11745921_a_at) / RFU CMKLR1 (11741424_a_at) / Fold change /veh CMKLR1 (11741424_a_at) / RFU LOC101060620 /// MAPK8IP1 (11723275_at) / Fold change /veh LOC101060620 /// MAPK8IP1 (11723275_at) / RFU SPTSSB (11747773_x_at) / Fold change /veh SPTSSB (11747773_x_at) / RFU PRSS12 (11739890_at) / Fold change /veh PRSS12 (11739890_at) / RFU BIN1 (11741810_x_at) / Fold change /veh BIN1 (11741810_x_at) / RFU WNT11 (11732464_a_at) / Fold change /veh WNT11 (11732464_a_at) / RFU C10orf10 (11716521_a_at) / Fold change /veh C10orf10 (11716521_a_at) / RFU C5orf56 (11738089_at) / Fold change /veh C5orf56 (11738089_at) / RFU CYB561 (11721691_x_at) / Fold change /veh CYB561 (11721691_x_at) / RFU ANKRD19P (11752326_a_at) / Fold change /veh ANKRD19P (11752326_a_at) / RFU OR2T12 /// OR2T33 /// OR2T8 (11738714_s_at) / Fold change /veh OR2T12 /// OR2T33 /// OR2T8 (11738714_s_at) / RFU VCAN (11748164_a_at) / Fold change /veh VCAN (11748164_a_at) / RFU JSRP1 (11732532_at) / Fold change /veh JSRP1 (11732532_at) / RFU KRTAP10-11 (11738290_x_at) / Fold change /veh KRTAP10-11 (11738290_x_at) / RFU MYO3A (11730013_a_at) / Fold change /veh MYO3A (11730013_a_at) / RFU EBF3 (11725865_a_at) / Fold change /veh EBF3 (11725865_a_at) / RFU CAMK2N1 (11719241_x_at) / Fold change /veh CAMK2N1 (11719241_x_at) / RFU C5orf56 (11738088_a_at) / Fold change /veh C5orf56 (11738088_a_at) / RFU OLFML3 (11715873_a_at) / Fold change /veh OLFML3 (11715873_a_at) / RFU LOC100653217 /// NTM (11731650_a_at) / Fold change /veh LOC100653217 /// NTM (11731650_a_at) / RFU MAPK11 (11762145_a_at) / Fold change /veh MAPK11 (11762145_a_at) / RFU FIZ1 (11724087_x_at) / Fold change /veh FIZ1 (11724087_x_at) / RFU OASL (11726364_x_at) / Fold change /veh OASL (11726364_x_at) / RFU SOX15 (11748057_x_at) / Fold change /veh SOX15 (11748057_x_at) / RFU CD79A (11719716_a_at) / Fold change /veh CD79A (11719716_a_at) / RFU HIST1H1D (11736915_at) / Fold change /veh HIST1H1D (11736915_at) / RFU CASKIN2 (11723855_a_at) / Fold change /veh CASKIN2 (11723855_a_at) / RFU LOC730098 (11760151_x_at) / Fold change /veh LOC730098 (11760151_x_at) / RFU OR4N2 (11742367_at) / Fold change /veh OR4N2 (11742367_at) / RFU PRRT2 (11749266_a_at) / Fold change /veh PRRT2 (11749266_a_at) / RFU SNX32 (11753110_a_at) / Fold change /veh SNX32 (11753110_a_at) / RFU CDHR5 (11726645_a_at) / Fold change /veh CDHR5 (11726645_a_at) / RFU RCAN1 (11760418_a_at) / Fold change /veh RCAN1 (11760418_a_at) / RFU FAM167A (11723789_a_at) / Fold change /veh FAM167A (11723789_a_at) / RFU FAM26E (11764081_at) / Fold change /veh FAM26E (11764081_at) / RFU ISYNA1 (11749810_s_at) / Fold change /veh ISYNA1 (11749810_s_at) / RFU ACY1 (11761880_at) / Fold change /veh ACY1 (11761880_at) / RFU 11764098_at / Fold change /veh 11764098_at / RFU SAMD14 (11745864_x_at) / Fold change /veh SAMD14 (11745864_x_at) / RFU NPB (11741838_a_at) / Fold change /veh NPB (11741838_a_at) / RFU TMPRSS6 (11731388_a_at) / Fold change /veh TMPRSS6 (11731388_a_at) / RFU KRTAP10-2 (11738614_at) / Fold change /veh KRTAP10-2 (11738614_at) / RFU ARHGAP8 /// PRR5-ARHGAP8 (11727945_x_at) / Fold change /veh ARHGAP8 /// PRR5-ARHGAP8 (11727945_x_at) / RFU KRTAP5-7 /// NADSYN1 (11734609_at) / Fold change /veh KRTAP5-7 /// NADSYN1 (11734609_at) / RFU RASL12 (11751679_a_at) / Fold change /veh RASL12 (11751679_a_at) / RFU CDKN2B (11736163_a_at) / Fold change /veh CDKN2B (11736163_a_at) / RFU PRF1 (11729649_at) / Fold change /veh PRF1 (11729649_at) / RFU, ZNF638 /// ZNF638-IT1 / Fold change vs veh, ZNF638 /// ZNF638-IT1 / RFU, PANK3 / Fold change vs veh, PANK3 / RFU, SH3YL1 / Fold change vs veh, SH3YL1 / RFU, ZEB2 / Fold change vs veh, ZEB2 / RFU, NRIP1 / Fold change vs veh, NRIP1 / RFU, PTTG1IP / Fold change vs veh, PTTG1IP / RFU, CAPN2 / Fold change vs veh, CAPN2 / RFU, MED14 / Fold change vs veh, MED14 / RFU, SNORA58 / Fold change vs veh, SNORA58 / RFU, C1orf63 / Fold change vs veh, C1orf63 / RFU, LRRFIP1 / Fold change vs veh, LRRFIP1 / RFU, NDUFAF7 / Fold change vs veh, NDUFAF7 / RFU, SLC12A2 / Fold change vs veh, SLC12A2 / RFU, IBTK / Fold change vs veh, IBTK / RFU, ESF1 / Fold change vs veh, ESF1 / Fold change vs veh, TMEM50B / RFU, TAOK1 / Fold change vs veh, TAOK1 / RFU, ACBD3 / Fold change vs veh, ACBD3 / RFU, TMA16 / Fold change vs veh, TMA16 / RFU, RWDD3 / Fold change vs veh, RWDD3 / RFU, BCAT1 / Fold change vs veh, BCAT1 / RFU, EDEM3 / Fold change vs veh, EDEM3 / RFU, TMEM33 / Fold change vs veh, TMEM33 / RFU, WDR75 / Fold change vs veh, WDR75 / RFU, AHCTF1 / Fold change vs veh, AHCTF1 / RFU, TFRC / Fold change vs veh, TFRC / RFU, ZDHHC17 / Fold change vs veh, ZDHHC17 / RFU, NOM1 / Fold change vs veh, NOM1 / RFU, ARL8B / Fold change vs veh, ARL8B / RFU, ZBTB11 / Fold change vs veh, ZBTB11 / RFU, TAMM41 / Fold change vs veh, TAMM41 / RFU, KIAA1704 /// LOC100996395 / Fold change vs veh, KIAA1704 /// LOC100996395 / RFU, ING1 / Fold change vs veh, ING1 / RFU, TRMT61B / Fold change vs veh, TRMT61B / RFU, FUBP3 / Fold change vs veh, FUBP3 / RFU, TP53 / Fold change vs veh, TP53 / RFU, TNKS2 / Fold change vs veh, TNKS2 / RFU, ZFP14 / Fold change vs veh, ZFP14 / RFU, ACTR2 / Fold change vs veh, ACTR2 / RFU, PPP3R1 / Fold change vs veh, PPP3R1 / RFU, PIK3R1 / Fold change vs veh, PIK3R1 / RFU, HNRNPA1 / Fold change vs veh, HNRNPA1 / RFU, RNF170 / Fold change vs veh, RNF170 / RFU, ZNF28 / Fold change vs veh, ZNF28 / RFU, RNGTT / Fold change vs veh, RNGTT / RFU, OGT / Fold change vs veh, OGT / RFU, BRD1 / Fold change vs veh, BRD1 / RFU, MARS / Fold change vs veh, MARS / RFU, ZNF655 / Fold change vs veh, ZNF655 / RFU, FAHD1 / Fold change vs veh, FAHD1 / RFU, BDP1 / Fold change vs veh, BDP1 / RFU, LRRCC1 / Fold change vs veh, LRRCC1 / RFU, ARID1A / Fold change vs veh, ARID1A / RFU, ZNF146 / Fold change vs veh, ZNF146 / RFU, ZNF330 / Fold change vs veh, ZNF330 / RFU, GPN3 / Fold change vs veh, GPN3 / RFU, C9orf123 / Fold change vs veh, C9orf123 / RFU, N4BP2L2 / Fold change vs veh, N4BP2L2 / RFU, ARFIP1 / Fold change vs veh, ARFIP1 / RFU, FAM179B / Fold change vs veh, FAM179B / RFU, BCL10 / Fold change vs veh, BCL10 / RFU, UHRF1BP1L / Fold change vs veh, UHRF1BP1L / RFU, BET1 / Fold change vs veh, BET1 / RFU, CNOT2 / Fold change vs veh, CNOT2 / RFU, ZNF268 / Fold change vs veh, ZNF268 / Fold change vs veh, ZNF507 / RFU, DGCR2 / Fold change vs veh, DGCR2 / RFU, WDSUB1 / Fold change vs veh, WDSUB1 / Fold change vs veh, HSP90B1 /// MIR3652 / RFU, ADSS / Fold change vs veh, ADSS / RFU, GK / Fold change vs veh, GK / RFU, ZNF148 / Fold change vs veh, ZNF148 / RFU, TAF9 / Fold change vs veh, TAF9 / RFU, SLC1A5 / Fold change vs veh, SLC1A5 / RFU, SLMO2 / Fold change vs veh, SLMO2 / RFU, ABCC4 / Fold change vs veh, ABCC4 / RFU, LOC101060439 /// RAP1B / Fold change vs veh, LOC101060439 /// RAP1B / RFU, RFX7 / Fold change vs veh, RFX7 / RFU, GTPBP10 / Fold change vs veh, GTPBP10 / RFU, CNEP1R1 / Fold change vs veh, CNEP1R1 / RFU, BIVM-ERCC5 /// ERCC5 / Fold change vs veh, BIVM-ERCC5 /// ERCC5 / RFU, ILF3 / Fold change vs veh, ILF3 / RFU 11762660_at / Fold change /veh 11762660_at / RFU VCAN (11757783_s_at) / Fold change /veh VCAN (11757783_s_at) / RFU DDX43 (11728927_at) / Fold change /veh DDX43 (11728927_at) / RFU KRT8 (11758188_x_at) / Fold change /veh KRT8 (11758188_x_at) / RFU NKD1 (11759106_at) / Fold change /veh NKD1 (11759106_at) / RFU SRD5A1 (11742802_a_at) / Fold change /veh SRD5A1 (11742802_a_at) / RFU TPSAB1 /// TPSB2 (11721975_s_at) / Fold change /veh TPSAB1 /// TPSB2 (11721975_s_at) / RFU GSTM3 (11746129_a_at) / Fold change /veh GSTM3 (11746129_a_at) / RFU IL23R (11737362_x_at) / Fold change /veh IL23R (11737362_x_at) / RFU TMEM51 (11727254_a_at) / Fold change /veh TMEM51 (11727254_a_at) / RFU PIWIL2 (11732686_x_at) / Fold change /veh PIWIL2 (11732686_x_at) / RFU ORM1 (11744905_x_at) / Fold change /veh ORM1 (11744905_x_at) / RFU CCDC152 (11743942_at) / Fold change /veh CCDC152 (11743942_at) / RFU ECM1 (11717891_a_at) / Fold change /veh ECM1 (11717891_a_at) / RFU IL23R (11748794_a_at) / Fold change /veh IL23R (11748794_a_at) / RFU TNFAIP8L3 (11732012_x_at) / Fold change /veh TNFAIP8L3 (11732012_x_at) / RFU MBOAT4 (11741988_at) / Fold change /veh MBOAT4 (11741988_at) / RFU 11764193_at / Fold change /veh 11764193_at / RFU TMEM53 (11763286_at) / Fold change /veh TMEM53 (11763286_at) / RFU MAGEB2 (11727129_at) / Fold change /veh MAGEB2 (11727129_at) / RFU TMEM200A (11744735_a_at) / Fold change /veh TMEM200A (11744735_a_at) / RFU CCDC152 (11751479_a_at) / Fold change /veh CCDC152 (11751479_a_at) / RFU FAM211A (11726209_a_at) / Fold change /veh FAM211A (11726209_a_at) / RFU RGS16 (11746705_a_at) / Fold change /veh RGS16 (11746705_a_at) / RFU VCAN (11755009_s_at) / Fold change /veh VCAN (11755009_s_at) / RFU RHOB (11743442_s_at) / Fold change /veh RHOB (11743442_s_at) / RFU RGS16 (11720943_a_at) / Fold change /veh RGS16 (11720943_a_at) / RFU RGS16 (11720944_at) / Fold change /veh RGS16 (11720944_at) / RFU, VPS4B / Fold change vs veh, VPS4B / RFU, CREB1 / Fold change vs veh, CREB1 / RFU, DNAJC13 / Fold change vs veh, DNAJC13 / RFU, GNAQ / Fold change vs veh, GNAQ / RFU, CDK5R1 / Fold change vs veh, CDK5R1 / RFU, ZRANB3 / Fold change vs veh, ZRANB3 / RFU, CUL4A / Fold change vs veh, CUL4A / RFU, CCNY / Fold change vs veh, CCNY / RFU, UFL1 / Fold change vs veh, UFL1 / RFU, COG3 / Fold change vs veh, COG3 / RFU, DIAPH2 / Fold change vs veh, DIAPH2 / RFU, SKA2 / Fold change vs veh, SKA2 / RFU, AFF3 / Fold change vs veh, AFF3 / RFU, LMF1 / Fold change vs veh, LMF1 / RFU, IPO11 / Fold change vs veh, IPO11 / RFU, DFFB / Fold change vs veh, DFFB / RFU, FOXP1 / Fold change vs veh, FOXP1 / RFU, CARD8 / Fold change vs veh, CARD8 / RFU, STRN3 / Fold change vs veh, STRN3 / RFU, ADK / Fold change vs veh, ADK / RFU, RASSF2 / Fold change vs veh, RASSF2 / RFU, WIPF1 / Fold change vs veh, WIPF1 / RFU, LARP1B / Fold change vs veh, LARP1B / RFU, RASA1 / Fold change vs veh, RASA1 / RFU, RB1 / Fold change vs veh, RB1 / RFU, PPFIA1 / Fold change vs veh, PPFIA1 / RFU, MAT2A / Fold change vs veh, MAT2A / RFU, CCT5 / Fold change vs veh, CCT5 / RFU, WDR92 / Fold change vs veh, WDR92 / RFU, CUX1 / Fold change vs veh, CUX1 / RFU, TTC7A / Fold change vs veh, TTC7A / RFU, TMEM135 / Fold change vs veh, TMEM135 / RFU, DEPTOR / Fold change vs veh, DEPTOR / RFU, CPM / Fold change vs veh, CPM / RFU, DNAJB6 / Fold change vs veh, DNAJB6 / RFU, CACNA2D3 / Fold change vs veh, CACNA2D3 / RFU, DTX4 / Fold change vs veh, DTX4 / RFU, TFCP2 / Fold change vs veh, TFCP2 / RFU, GMCL1 /// GMCL1P1 / Fold change vs veh, GMCL1 /// GMCL1P1 / RFU, AEBP2 / Fold change vs veh, AEBP2 / RFU, SNHG1 /// SNORD22 /// SNORD25 /// SNORD26 /// SNORD27 /// SNORD28 /// SNORD29 /// SNORD31 / Fold change vs veh, SNHG1 /// SNORD22 /// SNORD25 /// SNORD26 /// SNORD27 /// SNORD28 /// SNORD29 /// SNORD31 / Fold change (Aza/veh), C12orf56 (ProbeSet 11735607_a_at) / Fold change (ACY-1035/veh), C12orf56 (ProbeSet 11735607_a_at) / Fold change (Aza/veh), FGFR1OP (ProbeSet 11751329_s_at) / Fold change (ACY-1035/veh), FGFR1OP (ProbeSet 11751329_s_at) / Fold change (Aza/veh), VPS36 (ProbeSet 11739960_a_at) / Fold change (ACY-1035/veh), VPS36 (ProbeSet 11739960_a_at) / RFU SYPL1 (11715823_x_at) / Fold change /veh SYPL1 (11715823_x_at) / RFU IGFBP7 (11715501_s_at) / Fold change /veh IGFBP7 (11715501_s_at) / RFU REEP3 (11722064_at) / Fold change /veh REEP3 (11722064_at) / RFU IGLL1 (11728026_x_at) / Fold change /veh IGLL1 (11728026_x_at): dose or concentration left out as unconfirmed
Settings: ProbeSet 11719185_x_at; LIST B

Nc1ncn([C@@H]2O[C@H](CO)[C@@H](O)[C@H]2O)c(=O)n1 [azacitidine]
RFU, N4BP2L2: 91.08 RFU
